Measured values reported in ChEMBL document CHEMBL1201862, “PubChem BioAssay data set” (2004).
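Step 1: Grow cells in 96-well plates. Step 2: Expose to compound for 48 hours at 5 concentrations. Step 3: Interpolate endpoints linearly; if unreached, use highest concentration. GI50 = concentration required for 50% inhibition of growth.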 Calls of active or inactive are those of the source. No stated cut-off is given here; in the data, active = GI50 up to about 1.1 µM and inactive = higher.

Legend:
Test in all cases: DTP human tumour cell line panel, 48 h
HT-29 = tested on: HT-29
HCT-15 = tested on: HCT-15
Malme-3M = tested on: Malme-3M
SK-MEL-28 = tested on: SK-MEL-28
UACC-257 = tested on: UACC-257
SK-OV-3 = tested on: SK-OV-3
HOP-62 = tested on: HOP-62
HCC 2998 = tested on: HCC 2998
CAKI-1 = tested on: CAKI-1
U-251 = tested on: U-251
SF-539 = tested on: SF-539
T47D = tested on: T47D
SR = tested on: SR
NCI-H23 = tested on: NCI-H23
OVCAR-3 = tested on: OVCAR-3
MOLT-4 = tested on: MOLT-4
SK-MEL-5 = tested on: SK-MEL-5
786-0 = tested on: 786-0
SNB-75 = tested on: SNB-75
NCI-H226 = tested on: NCI-H226

Row | Structure (SMILES) | GI50 (HT-29) | GI50 (HCT-15) | GI50 (Malme-3M) | GI50 (SK-MEL-28) | GI50 (UACC-257) | GI50 (SK-OV-3) | GI50 (HOP-62) | GI50 (HCC 2998) | GI50 (CAKI-1) | GI50 (U-251) | GI50 (SF-539) | GI50 (T47D) | GI50 (SR) | GI50 (NCI-H23) | GI50 (OVCAR-3) | GI50 (MOLT-4) | GI50 (SK-MEL-5) | GI50 (786-0) | GI50 (SNB-75) | GI50 (NCI-H226)
1 | CCOC(=O)Nc1ccc(S(=O)(=O)Nn2cnnc2)cc1 | 20.3 µM (inactive) | 50.1 µM | 44.3 µM (inactive) | 42.8 µM (inactive) | > 100 µM (inactive) | 62.7 µM (inactive) | 51.6 µM (inactive) | 33.8 µM (inactive) | 47.1 µM (inactive) | 44.3 µM (inactive) | 22.4 µM (inactive) | > 100 µM (inactive) | 23.9 µM (inactive) | > 100 µM (inactive) | 27.9 µM (inactive) | 50.7 µM (inactive) | 23.9 µM (inactive) | 46.5 µM (inactive) | – | –
2 | CC1=C(Br)C(=O)C(C)=C(Br)C1=O.Cc1c(O)c(Br)c(C)c(O)c1Br | 2.07 µM (inactive) | 2.07 µM | 2.1 µM (inactive) | 1.91 µM (inactive) | 1.6 µM (inactive) | 15.6 µM (inactive) | 12 µM (inactive) | – | 2.14 µM (inactive) | 6.47 µM (inactive) | 4.78 µM (inactive) | 2.52 µM (inactive) | 0.925 µM (active) | 2.21 µM (inactive) | 1.83 µM (inactive) | 0.783 µM (active) | 4.22 µM (inactive) | 1.77 µM (inactive) | 14.2 µM (inactive) | 6.65 µM (inactive)
3 | CCOC(=O)c1csc(NC(=O)CCN2CCOCC2)n1 | 36.5 µM (inactive) | 49.7 µM | 19.3 µM (inactive) | > 100 µM (inactive) | 92.9 µM (inactive) | > 100 µM (inactive) | > 100 µM (inactive) | > 100 µM (inactive) | 32 µM (inactive) | > 100 µM (inactive) | > 100 µM (inactive) | > 100 µM (inactive) | 66.2 µM (inactive) | > 100 µM (inactive) | 39.6 µM (inactive) | 25.9 µM (inactive) | 67.1 µM (inactive) | – | – | –
4 | COC(=O)/C=C/c1cc2c(cc1-c1c(C(=O)O)cc(OC)c(OC)c1OC)OCO2 | > 10 µM (inactive) | > 10 µM | > 10 µM (inactive) | > 10 µM (inactive) | > 10 µM (inactive) | > 10 µM (inactive) | > 10 µM (inactive) | > 10 µM (inactive) | > 10 µM (inactive) | > 10 µM (inactive) | > 10 µM (inactive) | > 10 µM (inactive) | > 10 µM (inactive) | > 10 µM (inactive) | > 10 µM (inactive) | > 10 µM (inactive) | > 10 µM (inactive) | > 10 µM (inactive) | > 10 µM (inactive) | –
5 | C#CCNC(CSSCC(N)C(=O)O)C(=O)O (stereo not drawn) | > 100 µM (inactive) | > 100 µM | > 100 µM (inactive) | > 100 µM (inactive) | > 100 µM (inactive) | > 100 µM (inactive) | > 100 µM (inactive) | > 100 µM (inactive) | > 100 µM (inactive) | > 100 µM (inactive) | > 100 µM (inactive) | > 100 µM (inactive) | – | > 100 µM (inactive) | > 100 µM (inactive) | > 100 µM (inactive) | > 100 µM (inactive) | > 100 µM (inactive) | > 100 µM (inactive) | > 100 µM (inactive)
6 | C[N+](C)(C)c1ncnc2c1ncn2C1CCCCO1 (stereo not drawn) | > 100 µM (inactive) | – | > 100 µM (inactive) | > 100 µM (inactive) | > 100 µM (inactive) | > 100 µM (inactive) | > 100 µM (inactive) | – | > 100 µM (inactive) | > 100 µM (inactive) | – | > 100 µM (inactive) | > 100 µM (inactive) | > 100 µM (inactive) | > 100 µM (inactive) | > 100 µM (inactive) | > 100 µM (inactive) | > 100 µM (inactive) | > 100 µM (inactive) | –
7 | NC(=O)[N+](=CC(=S)Nc1ccccc1Cl)C(N)=O | > 100 µM (inactive) | > 100 µM | – | – | > 100 µM (inactive) | > 100 µM (inactive) | > 100 µM (inactive) | > 100 µM (inactive) | > 100 µM (inactive) | > 100 µM (inactive) | > 100 µM (inactive) | > 100 µM (inactive) | 28.7 µM (inactive) | > 100 µM (inactive) | > 100 µM (inactive) | > 100 µM (inactive) | > 100 µM (inactive) | > 100 µM (inactive) | – | > 100 µM (inactive)
8 | CCOC(=O)CC(C)C(C#N)(OP1(=O)OC(c2ccccc2)C(C)N1C)c1ccccc1 (stereo not drawn) | 57.7 µM (inactive) | 43.7 µM | 85.1 µM (inactive) | 81.7 µM (inactive) | 41.3 µM (inactive) | 86.7 µM (inactive) | > 100 µM (inactive) | 36 µM (inactive) | 81.5 µM (inactive) | 49 µM (inactive) | > 100 µM (inactive) | 30.5 µM (inactive) | 48.6 µM (inactive) | 66.1 µM (inactive) | 50.7 µM (inactive) | 28.8 µM (inactive) | 47.6 µM (inactive) | 77.8 µM (inactive) | – | –
9 | C[Si](C)(C)CNC(=O)OCc1ccccc1 | 48 µM (inactive) | > 100 µM | – | > 100 µM (inactive) | > 100 µM (inactive) | 0.962 µM (active) | 58.1 µM (inactive) | > 100 µM (inactive) | > 100 µM (inactive) | > 100 µM (inactive) | > 100 µM (inactive) | 19.1 µM (inactive) | 30.6 µM (inactive) | 76 µM (inactive) | > 100 µM (inactive) | – | 57.7 µM (inactive) | > 100 µM (inactive) | 90.4 µM (inactive) | 66.4 µM (inactive)
10 | Cc1cc(=O)nc(S(=O)(=O)NC(=O)Nc2cccc(Cl)c2)[nH]1 | > 100 µM (inactive) | > 100 µM | > 100 µM (inactive) | > 100 µM (inactive) | > 100 µM (inactive) | > 100 µM (inactive) | > 100 µM (inactive) | > 100 µM (inactive) | – | 97.3 µM (inactive) | > 100 µM (inactive) | > 88.5 µM (inactive) | > 100 µM (inactive) | > 100 µM (inactive) | 47.1 µM (inactive) | 32.7 µM (inactive) | > 100 µM (inactive) | > 100 µM (inactive) | 49.4 µM (inactive) | > 100 µM (inactive)
11 | CSc1c(C#N)c(O)n(-c2ccc(Cl)cc2)c(=O)c1C(C)=O | 34.8 µM (inactive) | 27.3 µM | 23.3 µM (inactive) | > 100 µM (inactive) | > 100 µM (inactive) | > 100 µM (inactive) | – | > 100 µM (inactive) | 18.7 µM (inactive) | > 100 µM (inactive) | 32.9 µM (inactive) | 27.1 µM (inactive) | 30.5 µM (inactive) | 31.5 µM (inactive) | 48.3 µM (inactive) | 23 µM (inactive) | 89.1 µM (inactive) | 37.7 µM (inactive) | 94.8 µM (inactive) | 26.9 µM (inactive)
12 | O=C1N/C(=N\C2CCCCC2)C2(CCN(CCCC3(c4ccc(F)cc4)OCCO3)CC2)N1c1ccccc1 | 16.6 µM (inactive) | 18.1 µM | 16.7 µM (inactive) | 18.6 µM (inactive) | 15.1 µM (inactive) | 21 µM (inactive) | 17.5 µM (inactive) | – | 22.8 µM (inactive) | 15.9 µM (inactive) | 17 µM (inactive) | 17 µM (inactive) | 13.9 µM (inactive) | 17.9 µM (inactive) | 11.8 µM (inactive) | 15.1 µM (inactive) | 15 µM (inactive) | 16.6 µM (inactive) | 14.3 µM (inactive) | 23.1 µM (inactive)
13 | N#Cc1cc2cc3c4c(c2oc1=O)CCCN4CCC3 | > 100 µM (inactive) | > 100 µM | – | > 100 µM (inactive) | > 100 µM (inactive) | > 100 µM (inactive) | > 100 µM (inactive) | > 100 µM (inactive) | > 100 µM (inactive) | > 100 µM (inactive) | > 100 µM (inactive) | > 100 µM (inactive) | > 100 µM (inactive) | > 100 µM (inactive) | > 100 µM (inactive) | > 100 µM (inactive) | > 100 µM (inactive) | > 100 µM (inactive) | > 76.4 µM (inactive) | > 100 µM (inactive)
14 | N#C/C(N)=C(C#N)/N=C/N | > 100 µM (inactive) | > 100 µM | > 100 µM (inactive) | > 100 µM (inactive) | > 100 µM (inactive) | > 100 µM (inactive) | > 100 µM (inactive) | > 100 µM (inactive) | – | > 100 µM (inactive) | > 100 µM (inactive) | > 100 µM (inactive) | > 100 µM (inactive) | > 100 µM (inactive) | > 100 µM (inactive) | > 100 µM (inactive) | > 100 µM (inactive) | > 100 µM (inactive) | > 100 µM (inactive) | –
15 | CCC/C(Cl)=N\OC(=O)Nc1ccc(F)cc1 | 28.3 µM (inactive) | 5.82 µM | 6.87 µM (inactive) | 18.5 µM (inactive) | 16.7 µM (inactive) | > 45.1 µM (inactive) | 19.2 µM (inactive) | 17.6 µM (inactive) | 1.91 µM (inactive) | 18.2 µM (inactive) | – | 7.24 µM (inactive) | 2.18 µM (inactive) | 20.3 µM (inactive) | 5.24 µM (inactive) | 2.47 µM (inactive) | 13.3 µM (inactive) | 6.5 µM (inactive) | > 42.7 µM (inactive) | 19.7 µM (inactive)
16 | C/C(=N\N=C(/S)N1CC2CCC(CC2)C1)c1ccncn1 | < 0.01 µM (active) | < 0.01 µM | < 0.01 µM (active) | 0.863 µM (active) | < 0.01 µM (active) | < 0.01 µM (active) | 0.108 µM (active) | – | < 0.01 µM (active) | < 0.01 µM (active) | < 0.01 µM (active) | < 0.01 µM (active) | < 0.01 µM (active) | < 0.01 µM (active) | < 0.01 µM (active) | < 0.01 µM (active) | < 0.01 µM (active) | 0.0103 µM (active) | 0.221 µM (active) | < 0.01 µM (active)
